Literature values as cited in patent EP0602619A1, “Controlled-release pharmaceutical compositions containing nicergoline” (INVERNI DELLA BEFFA FARMACEUTICI S.r.l., priority 1992, dated 1994).

period of excretion of the administered dose (humans, urine and feces): 3 to 4 days
half-life (in vivo): very short
SMILES: CO[C@]12C[C@@H](COC(=O)c3cncc(Br)c3)CN(C)[C@@H]1Cc1cn(C)c3cccc2c13 [Nicergoline, 8-β-1,6-dimethyl-[(5-bromonicotinoyloxy)methyl]-10α-methoxyergoline]
